Results taken from ChEMBL document CHEMBL1201862, “PubChem BioAssay data set” (2004).
The source made the active and inactive calls.

Key:
[1] = target: 72 kDa type IV collagenase (Homo sapiens, UniProt P08253); assay: Dose Response validation of uHTS RPN11 inhibitor hits using a MMP-2 Fluorescence assay.; assay type: functional
[2] = target: 26S proteasome non-ATPase regulatory subunit 14 (Homo sapiens, UniProt O00487); assay: inhibition of proteasome subunit RPN11 – biochemical, fluorescence polarization, uHTS hits, confirmation (AID 602368); assay type: functional
Sequence of 26S proteasome non-ATPase regulatory subunit 14 (O00487 whole entry): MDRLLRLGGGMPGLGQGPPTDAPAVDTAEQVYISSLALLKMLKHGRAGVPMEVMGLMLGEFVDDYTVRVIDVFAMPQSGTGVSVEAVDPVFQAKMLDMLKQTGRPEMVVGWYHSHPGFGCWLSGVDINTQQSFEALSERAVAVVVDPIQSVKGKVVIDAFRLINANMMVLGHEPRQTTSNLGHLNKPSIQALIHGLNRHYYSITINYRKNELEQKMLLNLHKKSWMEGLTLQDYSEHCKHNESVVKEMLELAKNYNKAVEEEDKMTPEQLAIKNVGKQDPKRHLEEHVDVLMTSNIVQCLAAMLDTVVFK

[3] = cAMP pathway inhibition in counterscreen cell line – TR-FRET cAMP detection, counter-screen for MC4R biased antagonist project, dose response (AID 602305); assay type: functional, cell-based;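 further: U2OS cells stimulated with forskolin near its EC80 as the cAMP inducer; potency is for inhibition of forskolin-stimulated cAMP signaling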
Prothrombin = Prothrombin (Bos taurus, UniProt P00735); assay: thrombin protease inhibitors – biochemical, fluorescence polarization, uHTS hits, dose response (AID 602369); assay type: functional
[4] = target: T1, Carboxy-terminal domain RNA polymerase II polypeptide A small phosphatase 1 (Homo sapiens, UniProt Q9GZU7); assay: CTDSP1 inhibitors, concentration-response, biochemical, absorbance readout, ultra-high-throughput screen actives (AID 540297); assay type: functional
T1 sequence (Q9GZU7 whole entry): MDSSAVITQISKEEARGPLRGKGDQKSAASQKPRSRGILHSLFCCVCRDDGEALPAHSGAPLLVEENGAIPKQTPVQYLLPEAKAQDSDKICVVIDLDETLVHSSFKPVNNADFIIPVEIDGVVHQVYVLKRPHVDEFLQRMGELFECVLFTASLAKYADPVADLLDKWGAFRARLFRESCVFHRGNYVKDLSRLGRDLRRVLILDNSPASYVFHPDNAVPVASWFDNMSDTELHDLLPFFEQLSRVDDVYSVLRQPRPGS

Melanocortin receptor 4 [5] = target: T2, Melanocortin receptor 4 (Homo sapiens, UniProt P32245); assay: inhibitors of MC4R cAMP signaling – cell-based, TR-FRET, biased antagonists, dose response (AID 602298); assay type: functional;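 further: antagonist potency against agonist-stimulated cAMP production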
T2 sequence (P32245 whole entry): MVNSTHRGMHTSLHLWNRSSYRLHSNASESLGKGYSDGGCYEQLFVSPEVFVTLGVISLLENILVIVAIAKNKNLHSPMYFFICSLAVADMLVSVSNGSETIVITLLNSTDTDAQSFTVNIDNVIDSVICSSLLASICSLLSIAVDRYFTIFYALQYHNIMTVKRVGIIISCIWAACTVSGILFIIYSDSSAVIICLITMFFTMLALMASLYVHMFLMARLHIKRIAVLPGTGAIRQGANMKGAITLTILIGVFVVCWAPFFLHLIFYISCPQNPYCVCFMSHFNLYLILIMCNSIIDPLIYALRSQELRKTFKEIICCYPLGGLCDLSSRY

Melanocortin receptor 4 [6] = target: T2, Melanocortin receptor 4; assay type: functional, cell-based
[7] = target: Long-chain-fatty-acid--AMP ligase FadD28 (Mycobacterium tuberculosis, UniProt P9WQ59); assay: Fluorescence polarization aasay to screen for inhibitors that compete for the binding of FadD28 to a bisubstrate Measured in Biochemical System Using Plate Reader - 2147-01_Inhibitor_Dose_CherryPick_Activity.; assay type: functional, Mycobacterium tuberculosis H37Rv
Sequence of Long-chain-fatty-acid--AMP ligase FadD28 (P9WQ59 whole entry): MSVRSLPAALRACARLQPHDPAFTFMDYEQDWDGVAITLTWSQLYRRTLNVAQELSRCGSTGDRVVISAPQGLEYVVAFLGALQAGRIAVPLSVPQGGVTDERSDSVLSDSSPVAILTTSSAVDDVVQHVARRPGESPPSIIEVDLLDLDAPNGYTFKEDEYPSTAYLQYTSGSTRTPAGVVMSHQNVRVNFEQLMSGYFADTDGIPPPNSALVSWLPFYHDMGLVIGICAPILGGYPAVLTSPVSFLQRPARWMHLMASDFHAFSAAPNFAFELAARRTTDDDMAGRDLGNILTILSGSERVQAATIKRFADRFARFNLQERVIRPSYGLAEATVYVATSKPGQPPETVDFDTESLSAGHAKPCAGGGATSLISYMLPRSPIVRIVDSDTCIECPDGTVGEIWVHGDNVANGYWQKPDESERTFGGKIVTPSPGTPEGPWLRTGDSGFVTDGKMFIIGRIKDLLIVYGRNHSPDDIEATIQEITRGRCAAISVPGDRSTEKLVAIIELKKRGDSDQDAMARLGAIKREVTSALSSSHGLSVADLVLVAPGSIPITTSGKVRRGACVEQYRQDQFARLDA

[8] = bead-based luminescence quenchers, dual-tagged ARNT – biochemical, AlphaScreen, cherry-pick, artefact control for ARNT-TACC3 interaction inhibitor project, dose response (AID 651705); assay type: functional;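 further: AlphaScreen bead proximity signal that flags compounds interfering with the detection technology; potency reflects signal decrease which marks the compound as an assay artifact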
[9] = target: T3, Heat shock factor protein 1 (Mus musculus, UniProt P38532); assay: decrease of HSF1-responsive luciferase luminescence – cell-based, NIH3T3, dose retest, confirmation (AID 2382); assay type: functional;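 further: NIH3T3 fibroblasts with HSF1-driven luciferase reporter stressed by proteasome inhibitor MG132; luminescence from HSF1-driven luciferase expression after 8 hours of MG132 stress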
T3 sequence (P38532 whole entry): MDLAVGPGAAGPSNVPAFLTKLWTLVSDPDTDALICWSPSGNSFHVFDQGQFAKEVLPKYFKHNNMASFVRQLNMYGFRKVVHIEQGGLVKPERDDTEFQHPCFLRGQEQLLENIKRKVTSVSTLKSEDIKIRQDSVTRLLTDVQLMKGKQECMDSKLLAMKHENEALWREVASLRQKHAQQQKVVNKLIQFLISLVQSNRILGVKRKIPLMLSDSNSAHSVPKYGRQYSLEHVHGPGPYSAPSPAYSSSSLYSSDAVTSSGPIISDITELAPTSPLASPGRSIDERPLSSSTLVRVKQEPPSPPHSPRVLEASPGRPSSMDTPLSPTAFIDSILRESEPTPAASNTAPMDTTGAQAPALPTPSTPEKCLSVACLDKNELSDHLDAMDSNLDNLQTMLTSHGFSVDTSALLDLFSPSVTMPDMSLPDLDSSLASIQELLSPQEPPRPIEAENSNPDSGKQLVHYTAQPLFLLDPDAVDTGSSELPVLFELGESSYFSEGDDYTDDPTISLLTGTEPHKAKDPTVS

Nonstructural protein 1 = Nonstructural protein 1 (Influenza A virus, UniProt Q194T2); assay type: functional, Influenza A virus (A/California/07/2009(H1N1))
Sequence of Nonstructural protein 1 (Q194T2 whole entry): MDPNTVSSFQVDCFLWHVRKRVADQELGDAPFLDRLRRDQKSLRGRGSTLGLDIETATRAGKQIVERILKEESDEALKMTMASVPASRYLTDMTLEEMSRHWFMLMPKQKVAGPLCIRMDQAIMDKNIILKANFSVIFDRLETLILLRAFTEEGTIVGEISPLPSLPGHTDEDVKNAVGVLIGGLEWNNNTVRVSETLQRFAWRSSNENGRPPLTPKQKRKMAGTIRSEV

[10] = target: T4, High affinity choline transporter 1 (Homo sapiens, UniProt Q9GZV3); assay: human choline transporter blockers, potency – cell-based, 10-point CRC, membrane potential dye, dose response (AID 588401); assay type: functional;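 further: membrane potential dye fluorescence of choline-evoked depolarization via CHT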
T4 sequence (Q9GZV3 whole entry): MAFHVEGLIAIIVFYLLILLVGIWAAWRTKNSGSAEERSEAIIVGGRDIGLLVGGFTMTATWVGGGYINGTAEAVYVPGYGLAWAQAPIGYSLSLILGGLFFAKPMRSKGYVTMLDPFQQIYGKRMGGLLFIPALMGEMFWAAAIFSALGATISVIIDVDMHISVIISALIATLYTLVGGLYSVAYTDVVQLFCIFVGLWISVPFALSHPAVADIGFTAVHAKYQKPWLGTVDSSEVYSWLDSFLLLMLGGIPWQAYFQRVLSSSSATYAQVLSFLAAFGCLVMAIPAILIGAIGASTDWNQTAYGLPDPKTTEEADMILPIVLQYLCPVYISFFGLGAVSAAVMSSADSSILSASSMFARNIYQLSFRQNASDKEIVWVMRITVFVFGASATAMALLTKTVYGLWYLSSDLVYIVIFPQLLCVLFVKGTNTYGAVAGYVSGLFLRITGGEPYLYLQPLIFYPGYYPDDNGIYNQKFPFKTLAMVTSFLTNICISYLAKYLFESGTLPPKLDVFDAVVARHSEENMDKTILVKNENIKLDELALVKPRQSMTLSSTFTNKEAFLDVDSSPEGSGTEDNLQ

[11] = target: T4, High affinity choline transporter 1; assay: human choline transporter blockers, potency – cell-based, 5-point CRC, membrane potential dye, dose response (AID 504840); assay type: functional
[12] = intracellular Trypanosoma cruzi inhibitors in host cells – cell-based, plate reader, cherry-pick samples, set 3, dose response (AID 651818); assay type: functional;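 further: compounds incubated with infected cells for about four days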
[13] = target: T5, Sentrin-specific protease 1 (Homo sapiens, UniProt Q9P0U3); assay: Dose response confirmation of small molecule inhibitors of the catalytic domain of the SUMO protease, SENP1 in a FRET assay.; assay type: functional; details: read-out: IC50_Mean
T5 sequence (Q9P0U3 whole entry): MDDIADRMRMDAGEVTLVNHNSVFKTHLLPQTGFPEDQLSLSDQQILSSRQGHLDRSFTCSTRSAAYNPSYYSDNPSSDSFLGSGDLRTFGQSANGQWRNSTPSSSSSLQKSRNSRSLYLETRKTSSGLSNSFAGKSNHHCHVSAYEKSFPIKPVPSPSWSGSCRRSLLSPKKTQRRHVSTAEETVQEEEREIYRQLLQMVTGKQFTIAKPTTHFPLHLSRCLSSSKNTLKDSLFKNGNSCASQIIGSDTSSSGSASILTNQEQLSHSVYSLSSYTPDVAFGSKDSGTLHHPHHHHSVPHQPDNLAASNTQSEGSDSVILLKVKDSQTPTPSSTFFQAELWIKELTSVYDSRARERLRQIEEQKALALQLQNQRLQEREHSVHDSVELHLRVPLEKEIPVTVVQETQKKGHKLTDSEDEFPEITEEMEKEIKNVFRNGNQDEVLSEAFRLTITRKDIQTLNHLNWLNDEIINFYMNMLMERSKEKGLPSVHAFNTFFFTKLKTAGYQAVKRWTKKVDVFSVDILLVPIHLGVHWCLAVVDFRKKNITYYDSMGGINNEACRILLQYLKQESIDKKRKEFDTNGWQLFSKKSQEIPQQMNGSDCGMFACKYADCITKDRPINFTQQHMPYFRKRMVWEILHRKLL

[14] = target: T5, Sentrin-specific protease 1; assay: SENP1 catalytic domain blockers, concentration series – biochemical, kinetic FRET, dose response (AID 651697); assay type: functional; details: read-out: IC50_Mean
[15] = target: T6, Probable nicotinate-nucleotide adenylyltransferase (Staphylococcus aureus (strain N315), UniProt P65502); assay type: functional, Staphylococcus aureus subsp. aureus N315;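 on IC50 Mean: confirmatory dose-response retesting of NadD inhibitor hits first found in an ultra-high-throughput screen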
T6 sequence (P65502 whole entry): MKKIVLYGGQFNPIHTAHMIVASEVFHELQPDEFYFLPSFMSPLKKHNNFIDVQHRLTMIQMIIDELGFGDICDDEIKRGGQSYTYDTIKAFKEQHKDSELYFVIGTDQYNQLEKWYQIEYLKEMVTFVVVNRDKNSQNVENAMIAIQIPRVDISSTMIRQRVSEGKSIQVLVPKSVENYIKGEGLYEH

[16] = Luminescence Cell-Based Dose Confirmation HTS to Identify Activators of 5'UTR Stem-Loop Driven Alpha-Synuclein mRNA Translation in H4 Neuroglioblastoma Cells. [Related pubchem assays: 1829 (Project Summary), 1814 (Primary HTS)]; assay type: functional
[17] = target: T6, Probable nicotinate-nucleotide adenylyltransferase; assay type: functional, Staphylococcus aureus subsp. aureus N315; details: read-out: IC50_Mean
[18] = Luminescence Cell-Based Dose Response HTS to Identify Activators of Luciferase Translation or Activity in H4 […] Cells. [Related pubchem assays: 1829 (Project Summary), 1814 (Primary HTS)]; assay type: functional
H4 = assay: Luminescence Cell-Based Dose Response HTS to Identify Activators of 5'UTR Stem-Loop Driven Prion Protein mRNA Translation in H4 Neuroglioblastoma Cells. [Related pubchem assays: 1829 (Project Summary), 1814 (Primary HTS)]; assay type: functional; details: Homo sapiens
Protein Wnt-3a = Protein Wnt-3a (Mus musculus, UniProt P27467); assay: antagonism of Wnt3a pathway luciferase reporter – Wnt-LIGHT cells, luminescence, selectivity assay for Gli-SUFU antagonist project, dose response (AID 651570); assay type: functional; details: read-out: IC50_Mean;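 further: Wnt-LIGHT reporter cells stimulated with conditioned medium from Wnt3a-producing cells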
Sequence of Protein Wnt-3a (P27467 whole entry): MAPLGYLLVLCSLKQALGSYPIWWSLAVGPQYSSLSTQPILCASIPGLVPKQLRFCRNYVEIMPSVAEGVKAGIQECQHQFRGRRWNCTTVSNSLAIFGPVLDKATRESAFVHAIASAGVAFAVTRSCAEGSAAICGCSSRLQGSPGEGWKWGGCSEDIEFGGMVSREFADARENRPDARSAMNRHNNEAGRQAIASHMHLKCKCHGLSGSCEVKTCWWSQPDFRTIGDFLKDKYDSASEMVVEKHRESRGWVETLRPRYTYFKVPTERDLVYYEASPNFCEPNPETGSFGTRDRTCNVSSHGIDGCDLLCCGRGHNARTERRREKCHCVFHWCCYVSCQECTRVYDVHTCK

Sequence of 72 kDa type IV collagenase (P08253 whole entry): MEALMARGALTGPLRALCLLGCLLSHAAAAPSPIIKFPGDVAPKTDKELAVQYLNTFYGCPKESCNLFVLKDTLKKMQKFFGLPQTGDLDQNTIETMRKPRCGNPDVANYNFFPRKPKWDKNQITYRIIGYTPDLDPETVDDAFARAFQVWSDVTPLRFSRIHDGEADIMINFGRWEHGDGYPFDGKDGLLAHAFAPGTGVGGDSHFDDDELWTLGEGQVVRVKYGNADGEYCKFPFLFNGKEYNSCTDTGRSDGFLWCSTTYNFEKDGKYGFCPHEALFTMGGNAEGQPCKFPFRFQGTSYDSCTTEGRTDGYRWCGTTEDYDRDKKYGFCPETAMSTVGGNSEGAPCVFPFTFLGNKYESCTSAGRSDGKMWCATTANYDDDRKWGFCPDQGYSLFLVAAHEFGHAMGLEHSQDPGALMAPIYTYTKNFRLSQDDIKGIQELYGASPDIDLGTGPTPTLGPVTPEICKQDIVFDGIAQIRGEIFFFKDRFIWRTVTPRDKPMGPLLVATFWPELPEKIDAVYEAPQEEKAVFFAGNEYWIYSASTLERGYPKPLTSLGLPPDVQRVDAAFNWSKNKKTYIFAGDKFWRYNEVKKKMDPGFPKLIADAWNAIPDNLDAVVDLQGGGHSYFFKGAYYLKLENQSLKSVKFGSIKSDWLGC

## C=CCn1/c(=N/C(=O)c2sc3ccccc3c2Cl)sc2cc(S(N)(=O)=O)ccc21
[1]
  IC50: > 100 µM (inactive)
[2]
  IC50: 12.5 µM (active)
[3]
  IC50: > 64.6 µM (inactive)
Prothrombin
  IC50: > 100 µM (inactive)
[4]
  IC50: 4.39 µM (active)
Melanocortin receptor 4 [5]
  IC50: 30.7 µM (inactive)

## O=C1OC(c2ccccc2)(c2ccc(O)cc2)c2ccccc21 (stereo not drawn)
Melanocortin receptor 4 [6]
  EC50: > 89.2 µM (inactive)

## COc1ccc(/C=C2\SC(=O)N(CC(=O)Nc3cccc(C)c3)C2=O)cc1O
[7]
  AC50: 1.47 µM (active)

## O=C(NCCCn1ccnc1)C(=O)NCC1OCCN1S(=O)(=O)c1cc(F)ccc1F (stereo not drawn)
[8]
  AC50: 84.5 µM (active)
[9]
  EC50: 128 µM (active)
Nonstructural protein 1
  IC50: 12.7 µM (active)

## CCCn1c2ccccc2c2cnn(CC(=O)NCCCN3CCN(c4ccccc4)CC3)c(=O)c21
[10]
  IC50: 2.84 µM (active)
[11]
  IC50: 2.49 µM (active)

## CC(C)NC(=O)Nc1cccc2c1O[C@H](CN(C)Cc1ccc(C(=O)Nc3ccccc3N)cc1)[C@H](C)CN([C@@H](C)CO)C2=O
[12]
  AC50: 2.95 µM (active)

## CC(=O)Nc1cc(-c2ccc(N3CCN(C)CC3)cc2)cn2c(-c3ccccc3)cnc12
[13]
  IC50: 12.2 µM (active)
[14]
  IC50: 24.1 µM (inactive)

## Cc1ccc(Nc2nc(Nc3ccc(C)cc3)nc(SC3=NCCS3)n2)cc1
[15]
  IC50: 28.6 µM (active)
[16]
  EC50: > 120 µM (not active)
[17]
  IC50: 53.6 µM (active)
[18]
  EC50: > 120 µM (not active)
H4
  EC50: 17.6 µM (active)

## C[C@]12CCC[C@H](O1)c1c(cc3c(c1O)C(=O)c1c(O)cc(O)cc1C3=O)O2
[1]
  IC50: 78.4 µM (active)
[2]
  IC50: 2.94 µM (active)
Prothrombin
  IC50: 4.81 µM (active)

## Cn1c(=O)c2c(nc(NCc3ccco3)n2Cc2ccc(Cl)cc2Cl)n(C)c1=O
Protein Wnt-3a
  IC50: 1.94 µM (active)

## COc1ccccc1Cc1c(-c2cccc(Br)c2)nc2ccc(Cl)cn12
[1]
  IC50: > 100 µM (inactive)
[2]
  IC50: 8.48 µM (active)
Prothrombin
  IC50: 13 µM (active)
